Measurements as given in patent publication US20060063759A1, “Tricyclic steroid hormone nuclear receptor modulators” (priority 2002, published 2006).

Key:
human MR = target: T1, human MR (Homo sapiens, UniProt P08235); assay: Mineralocorticoid Receptor Binding Assay ([3H]-aldosterone); conditions: [3H]-aldosterone binding, human MR expressed in Sf9 cells; read-out: MR Ki
T1 construct: The full length human MR gene is cloned from a human kidney or human brain cDNA library; His tag from the pAcHLT vector (own knowledge); made in house; host or cells: Sf9 insect cells (baculovirus, pAcHLT transfer vector)
T1 sequence (P08235 1-984): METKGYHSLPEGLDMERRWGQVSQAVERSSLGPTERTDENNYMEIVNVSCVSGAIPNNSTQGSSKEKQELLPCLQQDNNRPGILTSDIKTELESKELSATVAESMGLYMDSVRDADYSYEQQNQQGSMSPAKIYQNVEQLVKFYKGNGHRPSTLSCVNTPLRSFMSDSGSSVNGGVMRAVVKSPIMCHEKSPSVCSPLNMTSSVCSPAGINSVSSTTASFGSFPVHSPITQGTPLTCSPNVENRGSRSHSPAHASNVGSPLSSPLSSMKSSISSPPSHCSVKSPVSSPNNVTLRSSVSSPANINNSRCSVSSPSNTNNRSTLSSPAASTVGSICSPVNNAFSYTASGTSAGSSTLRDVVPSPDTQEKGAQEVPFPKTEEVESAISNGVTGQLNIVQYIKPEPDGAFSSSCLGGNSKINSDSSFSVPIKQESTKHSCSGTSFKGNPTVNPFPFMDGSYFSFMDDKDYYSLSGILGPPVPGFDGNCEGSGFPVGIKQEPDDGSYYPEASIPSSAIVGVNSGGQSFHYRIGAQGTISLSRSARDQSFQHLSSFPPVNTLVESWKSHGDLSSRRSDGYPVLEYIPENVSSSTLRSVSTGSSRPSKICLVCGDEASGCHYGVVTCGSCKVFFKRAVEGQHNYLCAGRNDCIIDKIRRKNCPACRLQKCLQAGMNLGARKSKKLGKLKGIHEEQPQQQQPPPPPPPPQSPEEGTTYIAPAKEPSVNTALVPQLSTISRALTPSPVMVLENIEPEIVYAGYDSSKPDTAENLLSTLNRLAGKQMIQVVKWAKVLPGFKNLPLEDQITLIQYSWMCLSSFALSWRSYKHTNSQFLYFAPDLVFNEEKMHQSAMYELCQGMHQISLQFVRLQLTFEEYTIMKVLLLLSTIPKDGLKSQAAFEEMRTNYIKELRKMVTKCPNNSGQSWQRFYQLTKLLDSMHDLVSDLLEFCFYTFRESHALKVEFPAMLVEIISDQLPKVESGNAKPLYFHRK
Outline: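 Lysate supernatant of Sf9 cells expressing full-length human MR (20-25 μg protein) was incubated with 0.5 nM [3H]-aldosterone and test compound in molybdate/Tris/phosphate/glycerol buffer, pH 7.5, ~16 h at 4 °C. Bound ligand was filtered and counted by scintillation; IC50 is the concentration halving [3H]-aldosterone binding.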

glucocorticoid receptor = target: T2, glucocorticoid receptor (Homo sapiens, UniProt P04150); assay: Glucocorticoid Receptor Binding Assay ([3H]-dexamethasone, A549 cell extract); conditions: [3H]-dexamethasone binding, read-out: GR Ki
T2 construct: containing 50-200 ug of A549 cell extract and 1.86 nM [^3H]-dexamethasone; host or cells: A549 human lung epithelial cells (sonicated cell extract)
T2 sequence (P04150 1-777): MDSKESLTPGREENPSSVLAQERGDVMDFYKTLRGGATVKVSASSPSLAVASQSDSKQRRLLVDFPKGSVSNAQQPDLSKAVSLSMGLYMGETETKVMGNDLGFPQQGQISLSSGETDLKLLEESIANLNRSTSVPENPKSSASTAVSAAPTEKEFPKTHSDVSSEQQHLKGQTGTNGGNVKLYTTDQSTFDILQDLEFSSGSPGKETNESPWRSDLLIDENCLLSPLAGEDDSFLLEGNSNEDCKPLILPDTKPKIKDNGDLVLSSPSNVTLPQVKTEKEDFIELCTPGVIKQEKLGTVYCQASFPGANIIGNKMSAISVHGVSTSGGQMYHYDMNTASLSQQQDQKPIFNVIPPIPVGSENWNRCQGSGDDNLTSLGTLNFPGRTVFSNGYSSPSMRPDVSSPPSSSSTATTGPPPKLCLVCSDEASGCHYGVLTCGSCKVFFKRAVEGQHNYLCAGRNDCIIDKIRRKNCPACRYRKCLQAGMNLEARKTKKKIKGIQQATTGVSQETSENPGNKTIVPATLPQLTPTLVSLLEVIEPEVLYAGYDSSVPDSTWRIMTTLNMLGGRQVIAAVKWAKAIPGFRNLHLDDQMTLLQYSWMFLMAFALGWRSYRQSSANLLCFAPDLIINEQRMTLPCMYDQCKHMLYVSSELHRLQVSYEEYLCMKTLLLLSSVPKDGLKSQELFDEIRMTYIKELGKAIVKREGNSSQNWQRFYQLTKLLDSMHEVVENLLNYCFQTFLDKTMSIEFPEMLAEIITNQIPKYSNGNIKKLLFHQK
Outline: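 A549 cell extract (50–200 ug) incubated with 1.86 nM [3H]-dexamethasone and test compound for 16 h at 4 °C in Tris-HCl pH 7.2 buffer with glycerol and molybdate. Unbound radioligand removed by dextran-coated charcoal, then supernatant bound counts measured by scintillation.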

Row | Ki (human MR) [µM] | Ki (glucocorticoid receptor) [µM] | SMILES
1 | < 0.5 | < 10 | O=c1[nH]c2ccc(C=C3c4ccccc4CCc4ccccc43)cc2[nH]1 [Example 223, 5-(10,11-Dihydro-dibenzo[a,d]cyclohepten-5-ylidenemethyl)-l,3-dihydro-benzoimidazol-2-one]
2 | < 0.5 | < 0.5 | O=C1Cc2c(C=C3c4ccccc4CCc4ccccc43)cccc2N1 [Example 224, 4-(10,11-Dihydro-dibenzo[a,d]cyclohepten-5-ylidenemethyl)-1,3-dihydro-indol-2-one]
3 | < 0.5 | < 10 | C(=C1c2ccccc2CCc2ccccc21)c1ccccc1-c1cnccn1 [Example 225, 2-[2-(10,11-Dihydro-dibenzo[a,d]cyclohepten-5-ylidenemethyl)-phenyl]-pyrazine]
4 | < 0.5 | < 1 | C(=C1c2ccccc2CCc2ccccc21)c1ccccc1-c1ccccn1 [Example 227, 2-[2-(10,11-Dihydro-dibenzo[a,d]cyclohepten-5-ylidenemethyl)-phenyl]-pyridine]
5 | < 0.5 | < 1 | C(=C1c2ccccc2CCc2ccccc21)c1ccccc1-c1cccnc1 [Example 228, 3-[2-(10,11-Dihydro-dibenzo[a,d]cyclohepten-5-ylidenemethyl)-phenyl]-pyridine]
6 | < 0.5 | < 1 | C(=C1c2ccccc2CCc2ccccc21)c1cccc(-c2ccn[nH]2)c1 [Example 229, 5-[3-(10,11-Dihydro-dibenzo[a,d]cyclohepten-5-ylidenemethyl)-phenyl]-1H-pyrazole]
7 | < 1 | < 10 | Nc1cccc(C=C2c3ccccc3CCc3ccccc32)n1 [Example 230, 6-(10,11-Dihydro-dibenzo[a,d]cyclohepten-5-ylidenemethyl)-pyridin-2-ylamine]
8 | < 0.5 | < 0.5 | CS(=O)(=O)Nc1cccc(C=C2c3ccccc3CCc3ccccc32)n1 [Example 231, N-[6-(10,11-Dihydro-dibenzo[a,d]cyclohepten-5-ylidenemethyl)-pyridin-2-yl]-methanesulfonamide]
9 | < 0.5 | < 10 | CS(=O)(=O)Nc1cncc(C=C2c3ccccc3CCc3ccccc32)n1 [Example 233, N-[6-(10,11-Dihydro-dibenzo[a,d]cyclohepten-5-ylidenemethyl)-pyrazin-2-yl]-methanesulfonamide]
10 | < 0.5 | < 0.5 | Oc1cncc(C=C2c3ccccc3CCc3ccccc32)c1 [Example 236, 5-(10,11-Dihydro-dibenzo[a,d]cyclohepten-5-ylidenemethyl)pyridin-3-ol]
11 | < 0.5 | < 10 | C(=C1c2ccccc2CCc2ccccc21)c1cn[nH]c1 [Example 237, 4-(10,11-Dihydro-dibenzo[a,d]cyclohepten-5-ylidenemethyl)-1H-pyrazole]
12 | < 0.5 | < 0.5 | CS(=O)(=O)Nc1cccc(/C=C2\c3ccccc3CCc3cccnc32)c1 [Example 249, (E)-N-[3-(5,6-Dihydro-benzo[5,6]cyclohepta[1,2-b]pyridin-11-ylidenemethyl)-phenyl]-methanesulfonamide]
13 | < 0.5 | < 0.5 | CS(=O)(=O)Nc1cccc(/C=C2/c3ccccc3CCc3ncccc32)c1 [Example 251, (Z)-N-[3-(10,11-Dihydro-benzo[4,5]cyclohepta[1,2-b]pyridin-5-ylidenemethyl)-phenyl]-methanesulfonamide]
14 | < 0.5 | < 0.5 | CS(=O)(=O)Nc1cccc(/C=C2\c3ccccc3CCc3ncccc32)c1 [Example 253, (E)-N-[3-(10,11-Dihydro-benzo[4,5]cyclohepta[1,2-b]pyridin-5-ylidenemethyl)-phenyl]-methanesulfonamide]
15 | < 0.5 | < 0.5 | Oc1cccc(/C=C2\c3ccccc3CCc3ncccc32)c1 [Example 254, (E)-3-(10,11-Dihydro-benzo[4,5]cyclohepta[1,2-b]pyridin-5-ylidenemethyl)-phenol]
16 | < 0.5 | < 0.5 | CS(=O)(=O)Nc1cccc(C=C2c3ccccc3C3C(c4ccccc42)C3(F)F)c1 (stereo not shown) [Example 255, N-[3-(8,8-Difluoro-4-ylidinemethyl-2,3,5,6-dibenzobicyclo[5.1.0]octane)-phenyl]-methanesulfonamide]
17 | < 0.5 | < 1 | Oc1cccc(C=C2c3ccccc3C3C(c4ccccc42)C3(F)F)c1 (stereo not shown) [Example 256]
18 | < 0.5 | < 0.5 | Oc1cccc(C=C2c3ccccc3C3CC3c3ccccc32)c1 (stereo not shown) [Example 258]
19 | < 0.5 | < 0.5 | CS(=O)(=O)Nc1cccc(/C=C2\c3ccccc3NC(=O)c3ccccc32)c1 [Example 261, N-[3-(6-Oxo-5,6-dihydro-dibenzo[b,e]azepin-11-ylidenemethyl)-phenyl]-methanesulfonamide]
20 | < 0.5 | < 0.5 | CS(=O)(=O)Nc1cccc(/C=C2\c3ccccc3CSc3ccccc32)c1 [Example 262, N-[3-(11H-10-Thia-dibenzo[a,d]cyclohepten-5-ylidenemethyl)-phenyl]-methanesulfonamide]
21 | < 0.5 | < 1 | CS(=O)(=O)Nc1cccc(/C=C2\c3ccccc3C[S+]([O-])c3ccccc32)c1 (stereo not shown) [Example 263, N-[3-(10-Oxo-10,11-dihydro-10λ^4-thia-dibenzo[a,d]cyclohepten-5-ylidenemethyl)-phenyl]-methanesulfonamide]
22 | < 1 | < 10 | CS(=O)(=O)Nc1cccc(/C=C2\c3ccccc3CS(=O)(=O)c3ccccc32)c1 [Example 264, N-[3-(10,10-Dioxo-10,11-dihydro-10λ^6-thia-dibenzo[a,d]cyclohepten-5-ylidenemethyl)-phenyl]-Methanesulfonamide]
23 | < 0.5 | < 0.5 | CS(=O)(=O)Nc1cccc(/C=C2\c3ccccc3COc3ccccc32)c1 [Example 267, N-[3-(6H-Dibenzo[b,e]oxepine-11-ylidenemethyl)-phenyl]-methanesulfonamide]
24 | < 0.5 | < 0.5 | CS(=O)(=O)Nc1cccc(/C=C2/c3ccccc3COc3ccccc32)c1 [Example 268, N-[3-(6H-Dibenzo[b,e]oxepin-11-ylidenemethyl)-phenyl]-methanesulfonamide]
25 | < 0.5 | < 0.5 | COc1cccc2c1OCc1ccccc1/C2=C\c1cccc(NS(C)(=O)=O)c1 [Example 271, N-[3-(4-Methoxy-6H-dibenzo[b,e]oxepin-11-ylidenemethyl)-phenyl]-methanesulfonamide]
26 | < 0.5 | < 0.5 | CS(=O)(=O)Nc1cccc(/C=C2/c3ccccc3OCc3c(Cl)cccc32)c1 [Example 274, N-[3-(7-Chloro-6H-dibenzo[b,e]oxepin-11-ylidenemethyl)-phenyl]-methanesulfonamide]
